Measured values taken from patent US8476451B2 (priority 2007, dated 2013).
Values after ≈ are worked out from the molar mass of the structure shown.

Key:
[1] = test system: L929 mouse fibroblast cells; assay: Growth inhibition, MTT assay, L929; format: cell-based; settings: for Cytotoxicity / activity relative to tubulysin D, in words: statement on Table 2 cell lines
Procedure: (§1) Cell lines were obtained from the American Type Culture Collection (ATCC) and the German Collection of Microorganisms and Cell Cultures (DSMZ). All cell lines were cultivated under conditions recommended by their respective depositors. Growth inhibition was measured in microtiter plates. Aliquots of 120 μl of the suspended cells (50,000/mL) were given to 60 μL of a serial dilution of the inhibitor and incubated at 37° C. and 10% CO2. After 5 days, when control cells had grown to confluence state, the metabolic activity in each well was determined using an MTT assay.

[2] = test system: SW-480 human colon adenocarcinoma cells; assay: Growth inhibition, MTT assay, SW-480; format: cell-based; settings: for Activity relative to tubulysin D in SW-480, in words: colon cancer cell line SW-480
Procedure: as §1

[3] = test system: KB-3-1 human cervix carcinoma cells; assay: Growth inhibition, MTT assay, KB-3-1; format: cell-based; settings: KB 3-1, 120 h; human cervix carcinoma (DSMZ ACC 158); MTT after 5 days; read-out: IC50 (ng/mL) KB-3-1
Procedure: as §1

[4] = Growth inhibition, MTT assay, L929; format: cell-based, Mouse; settings: mouse, L929 mouse fibroblast cells; cell line not given; read-out: Cytotoxicity (text, refers to Table 2)
Procedure: as §1

Row | Structure (SMILES) | Cytotoxicity / activity relative to tubulysin D, in words [1] | also measured
1 | CC[C@H](C)[C@H](NC(=O)[C@H]1CCCCN1C)C(=O)N(COC(=O)CC(C)C)[C@H](C[C@@H](OC(C)=O)c1nc(C(=O)NCCc2ccccc2)cs1)C(C)C [Analogue 2, 3-methyl-butyric acid ({1-[2-acetoxy-2-(4-phenethylcarbamoyl-thiazol-2-yl)-ethyl]-2-methyl-propyl}-{3-methyl-2-[(1-methyl-piperidine-2-carbonyl)-amino]-pentanoyl}-amino)-methyl ester] | cytoxicity comparable to the parent tubulysin | 
2 | CC[C@H](C)[C@H](NC(=O)[C@H]1CCCCN1C)C(=O)N(COC(=O)CC(C)C)[C@H](C[C@@H](OC(C)=O)c1nc(C(=O)NCCCC(=O)O)cs1)C(C)C [Analogue 3, 3-Methyl-butyric acid ((1-{2-acetoxy-2-[4-(3-carboxy-propylcarbamoyl)-thiazol-2-yl]-ethyl}-2-methyl-propyl)-{3-methyl-2-[(1-methyl-piperidine-2-carbonyl)-amino]-pentanoyl}-amino)-methyl ester] | cytoxicity comparable to the parent tubulysin | 
3 | CC[C@H](C)[C@H](NC(=O)[C@H]1CCCCN1C)C(=O)N(COC(=O)CC(C)C)[C@H](C[C@@H](OC(C)=O)c1nc(C(=O)NC)cs1)C(C)C [Analogue 4, 3-methyl-butyric acid ({1-[2-acetoxy-2-(4-methylcarbamoyl-thiazol-2-yl)-ethyl]-2-methyl-propyl}-{3-methyl-2-[(1-methyl-piperidine-2-carbonyl)-amino]-pentanoyl}-amino)-methyl ester] | maintained good activity | 
4 | CC[C@H](C)[C@H](NC(=O)[C@H]1CCCCN1C)C(=O)N(COC(=O)CC(C)C)[C@H](C[C@@H](OC(C)=O)c1nc(C(=O)O)cs1)C(C)C [Analogue 5, 2-[1-acetoxy-4-methyl-3-((3-methyl-butyryloxymethyl)-{3-methyl-2-[(1-methyl-piperidine-2-carbonyl)-amino]-pentanoyl}-amino)-pentyl]-thiazole-4-carboxylic acid] | maintained good activity | 
5 | CC[C@H](C)[C@H](NC(=O)CN(C)C)C(=O)N(COC(=O)CC(C)C)[C@H](C[C@@H](OC(C)=O)c1nc(C(=O)N[C@@H](Cc2ccccc2)C[C@H](C)C(=O)O)cs1)C(C)C [Analogue 6, 4-[(2-{1-acetoxy-3-[[2-(2-dimethylamino-acetylamino)-3-methyl-pentanoyl]-(3-methyl-butyryloxymethyl)-amino]-4-methyl-pentyl}-thiazole-4-carbonyl)-amino]-2-methyl-5-phenyl-pentanoic acid] | essentially equipotent with tubulysin D | Activity relative to tubulysin D in SW-480, in words [2]: more active than tubulysin D
6 | CC[C@H](C)[C@H](NC(C)=O)C(=O)N(COC(=O)CC(C)C)[C@H](C[C@@H](OC(C)=O)c1nc(C(=O)N[C@@H](Cc2ccccc2)C[C@H](C)C(=O)O)cs1)C(C)C [Analogue 7] | drastic decrease in activity | 
7 | CC[C@H](C)[C@H](N=[N+]=[N-])C(=O)N(COC(=O)CC(C)C)[C@H](C[C@@H](OC(C)=O)c1nc(C(=O)N[C@@H](Cc2ccccc2)C[C@H](C)C(=O)O)cs1)C(C)C [Analogue 8, 4-[(2-{1-acetoxy-3-[(2-azido-3-methyl-pentanoyl)-(3-methyl-butyryloxymethyl)-amino]-4-methyl-pentyl}-thiazole-4-carbonyl)-amino]-2-methyl-5-phenyl-pentanoic acid] | drastic decrease in activity | 
8 | CC[C@H](C)[C@H](NC(=O)[C@H]1CCCCN1C)C(=O)N(COC(=O)CC(C)C)[C@H](C[C@@H](O)c1nc(C(=O)N[C@@H](Cc2ccccc2)C[C@H](C)C(=O)O)cs1)C(C)C [Analogue 9] | minimal drop in cytotoxicity relative to the natural product | IC50 ([1]; L929, 120 h, mouse fibroblasts (DSMZ ACC 2), MTT after 5 days, read-out: IC50 (ng/mL) L929): 0.25 ng/mL (≈ 0.318 nM); IC50 [3]: 0.22 ng/mL (≈ 0.28 nM); IC50 ([2]; SW480, 120 h, human colon adenocarcinoma (ATCC CCL-228), MTT after 5 days, read-out: IC50 (ng/mL) SW-480): 0.057 ng/mL (≈ 0.0725 nM)
9 | CC[C@H](C)[C@H](NC(=O)[C@H]1CCCCN1C)C(=O)N(C)[C@H](C[C@@H](OC(C)=O)c1nc(C(=O)N[C@@H](Cc2ccccc2)C[C@H](C)C(=O)O)cs1)C(C)C [Analogue 10, 4-({2-[1-Acetoxy-4-methyl-3-(methyl-{3-methyl-2-[(1-methyl-piperidine-2-carbonyl)-amino]-pentanoyl}-amino)-pentyl]-thiazole-4-carbonyl}-amino)-2-methyl-5-phenyl-pentanoic acid] |  | Activity relative to tubulysin D in SW-480, in words [2]: more active than tubulysin D
10 | CC[C@H](C)[C@H](NC(=O)[C@H]1CCCCN1C)C(=O)N(C)[C@H](C[C@@H](OC(C)=O)c1nc(C(=O)NC)cs1)C(C)C [Analogue 11, acetic acid 4-methyl-1-(4-methylcarbamoyl-thiazol-2-yl)-3-(methyl-{3-methyl-2-[(1-methyl-piperidine-2-carbonyl)-amino]-pentanoyl}-amino)-pentyl ester] |  | IC50 at 5 days [4]: 2 ng/mL (≈ 3.62 nM)
